Results on 14 compounds are retold here after PubChem BioAssay (NCI).

Among the test systems are UACC-62 melanoma; NCI/ADR-RES ovarian; SF-539 CNS; IGROV1 ovarian; OVCAR-8 ovarian; SW-620 colon; T-47D breast; NCI-H226 lung; NCI-H460 lung.
What all share (experiment): growth of human tumour cells (NCI), 48 h

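Test compounds were applied to cells in 96-well plates for 48 hours at 5 doses. The concentration for full growth arrest is given as TGI.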 A value given as a limit tells only on which side of the number the result lay.

In the case of `Cc1ccc(-n2cc(-c3ccc(Cl)cc3)c3c(N/N=C4\SCC(=O)N4C)ncnc32)cc1`, the TGI in the assay with UACC-62 melanoma is 11.2 µM; in the assay with NCI/ADR-RES ovarian it was greater than 100 µM; in the assay with SF-539 CNS, 33.9 µM; with IGROV1 ovarian, greater than 100 µM; in the assay on OVCAR-8 ovarian, greater than 100 µM; with SW-620 colon it was greater than 100 µM. For the same compound, the TGI in the assay with T-47D breast was greater than 100 µM; in the assay on NCI-H226 lung, greater than 100 µM; in the assay with NCI-H460 lung, 43.2 µM.

For `CCCC(O)c1cn(C(NC(=O)c2ccccc2)P(=O)(OCC)OCC)nn1` (stereo not drawn), the TGI in the assay with UACC-62 melanoma, with NCI/ADR-RES ovarian, with SF-539 CNS, in the assay on IGROV1 ovarian, with OVCAR-8 ovarian and with SW-620 colon was greater than 100 µM in each case. In addition, the TGI in the assay on T-47D breast, in the assay on NCI-H226 lung and in the assay on NCI-H460 lung was greater than 100 µM throughout.

As to `CC12CC3OC(=O)C1COC14OC5(C2C1=O)C(O)(CCC1C4CC2OC24CC=CC(=O)C14C)C(=O)OC35C` (stereo not drawn), the TGI with UACC-62 melanoma is 27.6 µM; in the assay on NCI/ADR-RES ovarian, greater than 100 µM; with SF-539 CNS it was 28.4 µM; in the assay on IGROV1 ovarian, 42.8 µM; with OVCAR-8 ovarian it was greater than 100 µM; in the assay on SW-620 colon, 34.5 µM. The TGI is 37.3 µM with T-47D breast and greater than 100 µM with NCI-H460 lung.

For the compound `COc1cc(C2=NNC(=O)c3ccccc3N2c2nc(-c3cccs3)nc3ccc(Br)cc23)cc(OC)c1OC`, the TGI with UACC-62 melanoma is greater than 100 µM; in the assay with NCI/ADR-RES ovarian it was 30 µM; with SF-539 CNS, 24.2 µM; with IGROV1 ovarian, greater than 100 µM; with OVCAR-8 ovarian, greater than 100 µM; in the assay on SW-620 colon it was greater than 100 µM. Moreover, the TGI in the assay on T-47D breast was greater than 100 µM; in the assay on NCI-H226 lung, greater than 100 µM; with NCI-H460 lung, 14.2 µM.

For `O=[N+]([O-])c1ccc(N/N=C/CC(O)(C(F)(F)F)C(F)(F)F)c([N+](=O)[O-])c1`, the TGI with UACC-62 melanoma, in the assay on NCI/ADR-RES ovarian, in the assay with SF-539 CNS, in the assay on IGROV1 ovarian, with OVCAR-8 ovarian and in the assay with SW-620 colon was greater than 10 µM each time. Further, the TGI is greater than 10 µM with T-47D breast, greater than 10 µM with NCI-H226 lung and 8.35 µM with NCI-H460 lung.

As to `CCCCCc1nnc(NS(=O)(=O)c2ccc(NC(=O)OCC(C)C)cc2)s1`, the TGI in the assay with UACC-62 melanoma is greater than 100 µM; in the assay with NCI/ADR-RES ovarian, greater than 100 µM; in the assay on SF-539 CNS, 64.2 µM; in the assay on IGROV1 ovarian, 97.7 µM; with OVCAR-8 ovarian, greater than 100 µM; in the assay with SW-620 colon it was greater than 100 µM. The TGI in the assay on T-47D breast and with NCI-H460 lung was greater than 100 µM each time.

As for `COc1cc2cc(C(=O)N3CC(CCl)c4c3cc(NC(=O)OCc3ccc([N+](=O)[O-])cc3)c3ccccc43)[nH]c2c(OC)c1OC` (stereo not drawn), the TGI with UACC-62 melanoma was greater than 100 µM; with NCI/ADR-RES ovarian, greater than 100 µM; in the assay with SF-539 CNS it was greater than 100 µM; in the assay with IGROV1 ovarian, greater than 90 µM; in the assay on OVCAR-8 ovarian, greater than 100 µM; with SW-620 colon, greater than 100 µM. Moreover, the TGI with T-47D breast was greater than 100 µM; in the assay on NCI-H226 lung, greater than 100 µM; in the assay on NCI-H460 lung, greater than 39.1 µM.

For `O=C(O)C[C@@H]1[C@@H](O)[C@@H](O)CN2C(=O)c3ccccc3[C@H]12`, the TGI with UACC-62 melanoma, with NCI/ADR-RES ovarian, in the assay on SF-539 CNS, in the assay on IGROV1 ovarian, in the assay with OVCAR-8 ovarian and with SW-620 colon was greater than 100 µM throughout. In addition, the TGI in the assay with T-47D breast, with NCI-H226 lung and with NCI-H460 lung was greater than 100 µM in each case.

On to `Cc1cn(CCCCCCC2=NCCCN2)c(=O)[nH]c1=O`, for which the TGI in the assay with UACC-62 melanoma, in the assay with NCI/ADR-RES ovarian, in the assay on SF-539 CNS, in the assay with IGROV1 ovarian, in the assay on OVCAR-8 ovarian and in the assay with SW-620 colon was greater than 100 µM each time. Besides, the TGI in the assay with T-47D breast, with NCI-H226 lung and in the assay with NCI-H460 lung was greater than 100 µM in each case.

As to `O=[N+]([O-])c1ccc(C(Nc2ccccc2)P(c2ccccc2)c2ccccc2)cc1` (stereo not drawn), the TGI in the assay with UACC-62 melanoma, in the assay with NCI/ADR-RES ovarian, in the assay with SF-539 CNS, with IGROV1 ovarian, in the assay with OVCAR-8 ovarian and in the assay with SW-620 colon was greater than 100 µM throughout. Also, the TGI with T-47D breast, with NCI-H226 lung and with NCI-H460 lung was greater than 100 µM throughout.

Turning to `Cc1c(-c2ccccc2)nn2cc(-c3ccccc3)nnc12`, the TGI with UACC-62 melanoma was 92.3 µM; in the assay with NCI/ADR-RES ovarian, greater than 100 µM; with IGROV1 ovarian it was greater than 100 µM; in the assay on OVCAR-8 ovarian, greater than 100 µM; with SW-620 colon, 49.5 µM; in the assay with T-47D breast it was greater than 100 µM. Also, the TGI in the assay with NCI-H226 lung stood at 49.5 µM; in the assay with NCI-H460 lung, 51.2 µM.

`O=C(NC1CCCCC1)c1cc2ccccc2cc1O`: the TGI was greater than 100 µM in the assay on UACC-62 melanoma; 54.7 µM in the assay on NCI/ADR-RES ovarian; 57.2 µM in the assay with SF-539 CNS; greater than 100 µM with IGROV1 ovarian; 67.9 µM in the assay on OVCAR-8 ovarian; greater than 100 µM in the assay on SW-620 colon. For the same compound, the TGI in the assay on T-47D breast was greater than 100 µM; in the assay with NCI-H226 lung, 41 µM; in the assay on NCI-H460 lung it was 62.8 µM.

For the compound `O=c1sc2c(s1)-c1sc(=O)sc1SS2`, the TGI with UACC-62 melanoma is greater than 100 µM; with NCI/ADR-RES ovarian, greater than 76.3 µM; in the assay on SF-539 CNS, 99.1 µM; in the assay with IGROV1 ovarian, greater than 100 µM; with OVCAR-8 ovarian, 48.9 µM; with SW-620 colon, greater than 100 µM. The results for the TGI with T-47D breast, in the assay with NCI-H226 lung and in the assay with NCI-H460 lung were greater than 100 µM, greater than 73.1 µM and greater than 100 µM, respectively.

For `CCOC(=O)c1nc2ccccc2nc1Oc1ccc(C(=O)OC)cc1`, the TGI in the assay with UACC-62 melanoma, with NCI/ADR-RES ovarian, with SF-539 CNS, in the assay on IGROV1 ovarian, in the assay with OVCAR-8 ovarian and in the assay on SW-620 colon was greater than 100 µM each time. Moreover, the TGI in the assay with T-47D breast, in the assay with NCI-H226 lung and in the assay on NCI-H460 lung was greater than 100 µM throughout.
